Measured values taken from patent publication US4883791A, “25S,26-dihydroxycholecalciferol in the treatment of hypercalcitriolemic disease states” (Board of Regents, The University of Texas System, priority 1987, dated 1989).
“Also recorded” adds a separate entry of the source.

Columns and labels:
[1] = Effect of 25S,26(OH)2 D3 administration on 1,25(OH)2 D3 mediated increases in serum 1,25(OH)2 D3; type: in vivo, Sprague-Dawley rats (adult female); settings: for serum 1,25(OH)2 D: mean ± SE
Description: (§1) Adult female Sprague-Dawley rats weighing between 190-200 g were used in all studies and were purchased from Harlan (Houston, TX). The animals were housed in the animal resource facility and were fed a standard vitamin D-replete rat chow diet (2.0% calcium and 0.9% phorphorus, Tekland, Winfield, OH) ad lib. After four to five days of equlibration the animals were divided into appropriate study groups and injected subcutaneously each day with various doses of 25(S),26(OH)2 D3 or 1,25(OH)2 D3 metabolites. In some experiments, animals received both metabolites as two separate injections. Control animals received only vehicle (propylene glycol).
Two ml of serum was obtained for each rat for measurement of 25(S),26(OH)2 D3, and 1,25-(OH)2 D3. After spiking the samples with approximately 1200 cpm of radiolabeled 250HD3, 24,25-(OH)2 D3 and 1,25(OH)2 D3 and allowing the samples to equilibrate for 30 minutes, isolation of the vitamin D metabolites was accomplished as described in Bishop JE, Norman AW, Coburn JW, Roberts PA, Henry, HL 1980 "Determination of the concentration of 25-hydroxyvitamin D, 24,25-dihydroxyvitamin D and 1,25-dihydroxyvitamin D in a single two-milliliter plasma sample." Min Elect Metab 3: 181. Further separation and partial purification of the metabolites was effected with lipohilic Sephadex (Sigma, St. Louis, MO) liquid gel chromatography using a 9:1:1:0.015 (hexane:chloroform:methanol:H2 O) solvent system and a 10×1 cm gel bed as previously described by Eisman JA, Hamstra AJ, Kream BD, DeLuca HF, 1975, "A sensitive, precise and convenient method for determination of 1,25-dihydroxyvitamin D in human plasma." Arch Biochem Biophys 176: 235. This chromatographic system effectively separates 250HD (5-11 ml) from the dihydroxy metabolites (14-30 ml). The trihydroxy metabolite 1,25,26(OH)3 D is eluted from the column by changing the solvent system to 8:2:2:0.015 (hexane:chloroform:methanol:H2 O) after elution of the dihydroxy metabolites and collecting the next 12 ml.
Final resolution and purification of the vitamin D metabolites was performed with high pressure liquid chromatography as previously described in Zerwekh et al., 1983, "Extra-renal production of 24,25-dihydroxyvitaminD in chronic renal failure during 25-hydroxyvitamin D3 therapy." Kid Int. 23: 401 and Pak et al., 1982, "Effects of short-term glucocorticoid administration in primary hyperparathyroidism: comparison to sarcoidiosis J. Clin. Endrocrinol Metab. 54: 824. 250HD was purified on a 5% 2-propanol in hexane solvent system. The three dihydroxyvitamin D metabolites were isolated and purified using an 11% 2-propanol in hexane solvent system. The assay of 25S,26-(OH)2 D was performed using the rat serum vitamin D binding protein assay system described in Haddad JG, Chyu KF 1971 "competitive protein binding assay for 25-hydroxycholecalciferol." J Clin Endocrinol Metab 33: 992. The assay of 1,25(OH)2 D was accomplished using the chick intestinal receptor protein.
(§2) Values in parenthesis represent p value of significant difference between
(§3) dosed and control animals as determined by nonparametric analysis and
(§4) Welch's approximation to the t test. All values expressed as mean ± SE
(§5) for seven rats per group.
(§6) ^a 1,25(OH)2 D3 administered subcutaneously at a dose of
(§7) 0.15 μg/d/rat for three days
(§8) ^b 25S,26(OH)2 D3 administered subcutaneously for seven day
(§9) at a dose of 20 μg/d/rat; on days 5, 6, and 7 both 25S,26(OH)2
(§10) D3 and 1,25(OH)2 D3 (0.15 μg/d/rat) were given as two

[2] = Serum 25S,26(OH)2 D level after administration (rat serum vitamin D binding protein assay); type: in vivo, Sprague-Dawley rats (adult female); settings: mean ± SE
Description: as §1
Two ml of serum was obtained for each rat for measurement of 25(S),26(OH)2 D3, and 1,25-(OH)2 D3. […] This chromatographic system effectively separates 250HD (5-11 ml) from the dihydroxy metabolites (14-30 ml). The trihydroxy metabolite 1,25,26(OH)3 D is eluted from the column by changing the solvent system to 8:2:2:0.015 (hexane:chloroform:methanol:H2 O) after elution of the dihydroxy metabolites and collecting the next 12 ml.
250HD was purified on a 5% 2-propanol in hexane solvent system. The three dihydroxyvitamin D metabolites were isolated and purified using an 11% 2-propanol in hexane solvent system. […] The assay of 1,25(OH)2 D was accomplished using the chick intestinal receptor protein.
as §2, §3, §4, §5, §6, §7, §8, §9, §10

SMILES | serum 1,25(OH)2 D ([1]; Exp. 1, 1,25(OH)2 D3 alone, 0.15 μg/d/rat s.c., three days, seven rats, control 25 ± 3, p < 0.001) [pg/mL] | serum 1,25(OH)2 D ([1]; Exp. 2, 1,25(OH)2 D3 alone s.c., seven rats, control 23 ± 3, p = 0.006) [pg/mL] | serum 1,25(OH)2 D ([1]; Exp. 3, 1,25(OH)2 D3 alone s.c., seven rats, control 27 ± 4, p < 0.001) [pg/mL] | serum 25S,26(OH)2 D ([2]; Exp. 1, 1,25(OH)2 D3 alone, 0.15 μg/d/rat s.c., three days, seven rats, control 1.9 ± 0.2) [ng/mL] | serum 25S,26(OH)2 D ([2]; Exp. 2, 1,25(OH)2 D3 alone s.c., seven rats, control 2.0 ± 0.2) [ng/mL] | serum 25S,26(OH)2 D ([2]; Exp. 3, 1,25(OH)2 D3 alone s.c., seven rats, control 1.20 ± 0.1) [ng/mL] | serum 1,25(OH)2 D ([1]; Exp. 1, 25S,26(OH)2 D3 20 μg/d/rat s.c. seven days + 1,25(OH)2 D3 0.15 μg/d/rat days 5, 6, 7, control 25 ± 3) [pg/mL] | serum 1,25(OH)2 D ([1]; Exp. 2, 25S,26(OH)2 D3 + 1,25(OH)2 D3 s.c., seven rats, control 23 ± 3) [pg/mL] | serum 1,25(OH)2 D ([1]; Exp. 3, 25S,26(OH)2 D3 + 1,25(OH)2 D3 s.c., seven rats, control 27 ± 4) [pg/mL] | reduction of serum / endogenous 1,25-dihydroxycholecalciferol ([1]; result in words) | serum 25S,26(OH)2 D ([2]; Exp. 1, 25S,26(OH)2 D3 20 μg/d/rat s.c. seven days + 1,25(OH)2 D3 0.15 μg/d/rat days 5, 6, 7, control 1.9 ± 0.2, p < 0.001) [ng/mL] | serum 25S,26(OH)2 D ([2]; Exp. 2, 25S,26(OH)2 D3 + 1,25(OH)2 D3 s.c., seven rats, control 2.0 ± 0.2, p < 0.01) [ng/mL] | serum 25S,26(OH)2 D ([2]; Exp. 3, 25S,26(OH)2 D3 + 1,25(OH)2 D3 s.c., seven rats, control 1.20 ± 0.1, p < 0.006) [ng/mL]
C=C1/C(=C\C=C2/CCC[C@]3(C)[C@@H]([C@H](C)CCCC(C)(C)O)CC[C@@H]23)C[C@@H](O)C[C@@H]1O [1,25(OH)2 D3, 1α,25-dihydroxycholecalciferol, reference compound] | 206 ± 17 | 175 ± 52 | 180 ± 45 | 3.0 ± 0.8 | 3.20 ± 0.3 | 0.9 ± 0.3 | – | – | – | – | – | – | –
C=C1CC[C@H](O)C/C1=C/C=C1\CCC[C@]2(C)[C@@H]([C@H](C)CCC[C@](C)(O)CO)CC[C@@H]12 [25S,26(OH)2 D3, 25S,26-dihydroxycholecalciferol] | – | – | – | – | – | – | 59 ± 3 | 46 ± 4 | 38 ± 6 | lowers endogenous levels of 1α,25-dihydroxycholecalciferol; also recorded: active in reducing serum concentrations of 1,25-dihydroxycholecalciferol | 295 ± 7 | 168 ± 14 | 236 ± 28
